According to patent publication US9549942B2, “Composition for preventing or treating degenerative brain diseases including compound downregulating expression of BACE1 proteins” (RESEARCH & BUSINESS FOUNDATION SUNGKYUNKWAN UNIVERSITY, priority 2013, dated 2017):

How the values were obtained:
3×Tg-AD mice = assay: Morris water maze, platform removed on fifth day (memory); type: in vivo, mouse; conditions: 25 mg/kg orally every day for 4 weeks, 60 seconds
Experimental: As an Alzheimer's dementia animal model, 3×Tg-AD mice were used. The 3×Tg-AD mouse is a mouse having overexpressed presenilin, amyloid precursor protein (APP), and Tau genes, which are frequently found in Alzheimer's dementia. The 3×Tg-AD mouse is an animal model that is widely used for research on Alzheimer's dementia (Oddo S. et al, 2003, Neuron, 39, 409-421). 25 mg/kg of chlorhexidine was orally administered every day for 4 weeks; and 0.1 mg/kg and 0.5 mg/kg of thioguanosine were orally administered every day for 8 weeks to 6-month old 3×Tg-AD mice. A Morris water maze test was used to evaluate the effects of chlorhexidine and thioguanosine administration on the mice. […] In this configuration, a treated or control subject was placed into the water with its head towards a water tank wall surface, and a time was recorded for the length of time taken for finding the escape platform. […] After 15 minutes, the mouse was placed into the water again, a subsequent time taken for finding the escape platform was recorded, and a change in the learning ability was determined. This procedure was performed over four days, and the result of change in learning ability was measured. […]

BACE1 proteins = assay: BACE1 protein expression under oxidative stress (HNE) conditions of brain nerve cells (Western blot); type: cell-based, human; conditions: SH-SY5Y cells pretreated 24 hours at 1, 5 and 10 μM, then HNE
Experimental: In order to determine an influence of chlorhexidine and thioguanosine of the present disclosure on an amount of BACE1 expression under oxidative stress conditions of brain nerve cells, the following experiment was performed. Brain nerve cells, SH-SY5Y cells, were pretreated with chlorhexidine and thioguanosine at 1 μM, 5 μM, and 10 μM for 24 hours. Then, an oxidative stress substance HNE (4-hydroxynonenal) was applied to the SH-SY5Y cells, and a change in the amount of BACE1 proteins was determined by Western blot. A change in an amount of BACE1 mRNA was determined by real-time PCR.

[H]/N=C(\N/C(=N/[H])NCCCCCCNC(=N)NC(=N)Nc1ccc(Cl)cc1)Nc1ccc(Cl)cc1 [chlorhexidine, N′,N′″″-hexane-1,6-diylbis[N-(4-chlorophenyl)(imidodicarbonimidic diamide)]]
memory: time in target quadrant after platform removed (3×Tg-AD mice): spent the majority of time in the location in which the platform was formerly placed
increase in the amount of expression of BACE1 proteins due to oxidative stress (BACE1 proteins): decreased at 5 μM and 10 μM
